One block for each compound: values may come before it.
Experiments:
NCI-H2228 = experiment: Combination effect by median-effect method, WST-8 assay; assay type: cell-based, Human; conditions: in combination with STX-1159, 72 hours
Excerpt: (§1) NCI-H2228, NCI-H1975, SK-BR-3, Hep3B, MCF-7, Caov-3, A2058, K562 and SUP-B15 were purchased from American Type Culture Collection, SAS and HuH-7 were purchased from National Institutes of Biomedical Innovation, Health and Nutrition, and K1, FTC-133 and Ishikawa were purchased European Collection of Authenticated Cell Cultures. […] Fetal bovine serum (hereinafter, abbreviated as FBS) and MCDB 105 culture medium were purchased from Sigma Aldrich (Cat. Nos. 172012 and 117-500), and RMPI1640 culture medium, DMEM medium, Ham's F-12 medium, MEM medium and IMDM culture medium were purchased Thermo Fisher Scientific (Cat. Nos. A1049101, 11995-065, 11765-054, 11095-080 and 12440-053).
(§2) The agents were singly added one day after the cells were inoculated. […] The absorbance of water-soluble formazan generated by enzymatic activity of mitochondria in cells was measured at 450 nm using a microplate reader (Molecular Devices, Model: SpectraMax Plus). This was evaluated as the viable cell count to calculate a 50% cell growth inhibitory concentration (hereinafter, abbreviated as IC50). The reference dose of each agent was set based on IC50 (Table 3).
(§3) One day after the cells were inoculated, for single groups, STX-1159 and the agents were each added so as to be a final concentration which is ¼ times, ½ times, 1 time, 2 times or 4 times the reference dose, and for combination groups, STX-1159 and the agents were added so as to be a final concentration where STX-1159 and the agents combined were each ¼ times, ½ times, 1 time, 2 times or 4 times the reference dose. […] The fraction affected (hereinafter, abbreviated as fa) was calculated from the following expression:
(§4) fa=1−(viable cell count in agent exposure group)/(viable cell count in control group).
(§5) By a median-effect method using combination effect analyzing software CalcuSyn (HULINKS), the combination index (hereinafter, abbreviated as CI) was calculated from fa obtained when STX-1159 and the agents were exposed alone or in combination. Evaluation of the combination effect was based on grading by CI in Table 4. In calculation of CI, the average of the values from two or more experiments was employed.

phosphorylated STAT3 = biological target: T1, phosphorylated STAT3 (Homo sapiens, UniProt P40763); experiment: Western blotting in NCI-H2228 cells; assay type: cell-based; conditions: 24 hours
T1 construct: endogenous in cells; host or cells: NCI-H2228

c-myc = experiment: Western blotting in NCI-H2228 cells; assay type: cell-based, Human; conditions: 24 hours
[1] = Combination effect by median-effect method, summary over the cell lines of Example 1; assay type: cell-based; conditions: in combination with STX-1159; summary of Table 5
Method: The fraction affected (hereinafter, abbreviated as fa) was calculated from the following expression: fa=1-(viable cell count in agent exposure group)/(viable cell count in control group). […] Evaluation of the combination effect was based on grading by CI in Table 4. In calculation of CI, the average of the values from two or more experiments was employed.

Caov-3 = conditions: in combination with STX-1159, 72 hours
Excerpt: as §1
(§6) The cells were inoculated on a 96-well plate to the density shown in Table 2, and were cultured under conditions of 5% CO2 and 37° C. The agents were singly added one day after the cells were inoculated. To the control group was added DMSO, so as to be a final concentration of 0.05%. Subsequently, the cells were cultured under conditions of 5% CO2 and 37° C. for the time shown in Table 2, and the number living cells was evaluated by WST-8 assay. That is, 10 μL of a WST-8 kit solution (Kishida Chemical Co., ltd, Cat. No. 260-96162) was added to each well, and the cells were cultured under conditions of 5% CO2 and 37° C. for 1 to 2 hours. The absorbance of water-soluble formazan generated by enzymatic activity of mitochondria in cells was measured at 450 nm using a microplate reader (Molecular Devices, Model: SpectraMax Plus). This was evaluated as the viable cell count to calculate a 50% cell growth inhibitory concentration (hereinafter, abbreviated as IC50).
(§7) The cells were inoculated on a 96-well plate so as to be the density shown in Table 2, and were cultured under conditions of 5% CO2 and 37° C. One day after the cells were inoculated, for single groups, STX-1159 and the agents were each added so as to be a final concentration which is ¼ times, ½ times, 1 time, 2 times or 4 times the reference dose, and for combination groups, STX-1159 and the agents were added so as to be a final concentration where STX-1159 and the agents combined were each ¼ times, ½ times, 1 time, 2 times or 4 times the reference dose. To the control group was added DMSO, so as to be a final concentration of 0.1%. Subsequently, the cells were cultured under conditions of 5% CO2 and 37° C. for the time shown in Table 2, and the number living cells was measured by WST-8 assay. The fraction affected (hereinafter, abbreviated as fa) was calculated from the following expression:
as §4, §5

Ishikawa = conditions: in combination with STX-1159, 72 hours
Excerpt: as §1, §6, §7, §4, §5

MCF-7 = conditions: in combination with STX-1159, 72 hours
Excerpt: as §1, §6, §7, §4, §5

SK-BR-3 = experiment: Combination effect by median-effect method, WST-8 assay; assay type: cell-based, Human; conditions: in combination with STX-1159, 72 hours
Excerpt: as §1, §6, §7, §4, §5

Hep3B = experiment: as above; assay type: cell-based, Human; conditions: in combination with STX-1159, 72 hours
Excerpt: as §1, §2, §3, §4, §5

HuH-7 = experiment: as above; assay type: cell-based, Human; conditions: in combination with STX-1159, 72 hours
Excerpt: as §1, §2, §3, §4, §5

NCI-H1975 = experiment: as above; assay type: cell-based, Human; conditions: in combination with STX-1159, 72 hours
Excerpt: as §1, §2, §3, §4, §5

survivin = experiment: Western blotting in NCI-H2228 cells; assay type: cell-based, Human; conditions: agent alone, STX-1159 5 μM, 24 hours
K1 = experiment: Combination effect by median-effect method, WST-8 assay; assay type: cell-based, Human; conditions: in combination with STX-1159, 72 hours
Excerpt: as §1, §2, §3, §4, §5

FTC-133 = conditions: in combination with STX-1159, 72 hours
Excerpt: as §1, §6, §7, §4, §5

SAS = conditions: in combination with STX-1159, 48 hours
Excerpt: as §1, §6, §7, §4, §5

[2] = agent alone, STX-1159 5 μM, alectinib 0.01 or 0.1 μM
[3] = both agents in combination (STX-1159 5 μM, alectinib 0.01 or 0.1 μM) versus each single agent

T1 sequence (P40763 whole entry): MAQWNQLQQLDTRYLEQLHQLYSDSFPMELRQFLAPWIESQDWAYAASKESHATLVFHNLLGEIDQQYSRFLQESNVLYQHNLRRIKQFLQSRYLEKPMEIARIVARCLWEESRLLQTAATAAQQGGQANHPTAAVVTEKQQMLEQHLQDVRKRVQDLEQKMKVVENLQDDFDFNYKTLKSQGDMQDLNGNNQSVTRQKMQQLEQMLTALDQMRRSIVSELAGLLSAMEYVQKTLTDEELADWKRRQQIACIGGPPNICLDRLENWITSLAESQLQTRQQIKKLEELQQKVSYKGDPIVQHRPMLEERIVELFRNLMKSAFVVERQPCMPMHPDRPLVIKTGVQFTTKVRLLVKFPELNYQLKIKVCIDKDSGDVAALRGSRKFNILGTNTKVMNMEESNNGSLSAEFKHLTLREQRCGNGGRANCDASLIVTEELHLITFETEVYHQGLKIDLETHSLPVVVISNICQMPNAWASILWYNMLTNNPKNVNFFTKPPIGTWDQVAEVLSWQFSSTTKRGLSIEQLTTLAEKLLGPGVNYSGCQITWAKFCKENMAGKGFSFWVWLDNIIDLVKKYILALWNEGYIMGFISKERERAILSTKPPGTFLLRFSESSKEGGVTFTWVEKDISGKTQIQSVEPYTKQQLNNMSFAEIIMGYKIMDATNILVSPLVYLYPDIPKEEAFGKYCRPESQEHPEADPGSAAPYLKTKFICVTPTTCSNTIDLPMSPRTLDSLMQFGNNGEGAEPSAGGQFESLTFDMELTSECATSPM

amount of phosphorylated STAT3 (phosphorylated STAT3; [2]): reduced
amount of phosphorylated STAT3 (phosphorylated STAT3; [3]): more reduced
SMILES: CCc1cc2c(cc1N1CCC(N3CCOCC3)CC1)C(C)(C)c1[nH]c3cc(C#N)ccc3c1C2=O [Alectinib]
CI (NCI-H2228): 0.57
Combination effect (NCI-H2228): Synergetic effect (0.3 < CI ≤ 0.7)
amount of c-myc (c-myc; [2]): reduced
amount of c-myc (c-myc; [3]): more reduced
combination effect by the median-effect method [1]: synergetic effect

SMILES: CO[C@H]1C[C@@H]2CC[C@@H](C)[C@@](O)(O2)C(=O)C(=O)N2CCCC[C@H]2C(=O)O[C@H]([C@H](C)C[C@@H]2CC[C@@H](OCCO)[C@H](OC)C2)CC(=O)[C@H](C)/C=C(\C)[C@@H](O)[C@@H](OC)C(=O)[C@H](C)C[C@H](C)/C=C/C=C/C=C/1C [Everolimus, everolimus]
CI (Caov-3): 0.90
Combination effect (Caov-3): Light synergetic effect (0.85 < CI ≤ 0.9)
CI (Ishikawa): 0.89
Combination effect (Ishikawa): Light synergetic effect (0.85 < CI ≤ 0.9)
CI (MCF-7): 0.73
Combination effect (MCF-7): Moderate synergetic effect (0.7 < CI ≤ 0.85)
combination effect by the median-effect method [1]: synergetic effect

SMILES: CS(=O)(=O)CCNCc1ccc(-c2ccc3ncnc(Nc4ccc(OCc5cccc(F)c5)c(Cl)c4)c3c2)o1 [Lapatinib, lapatinib]
CI (SK-BR-3): 0.88
Combination effect (SK-BR-3): Light synergetic effect (0.85 < CI ≤ 0.9)
combination effect by the median-effect method [1]: synergetic effect

SMILES: COc1cc2nccc(Oc3ccc(NC(=O)NC4CC4)c(Cl)c3)c2cc1C(N)=O [Lenvatinib, lenvatinib]
CI (Hep3B): 0.75
Combination effect (Hep3B): Moderate synergetic effect (0.7 < CI ≤ 0.85)
CI (HuH-7): 0.85
Combination effect (HuH-7): Moderate synergetic effect (0.7 < CI ≤ 0.85)
combination effect by the median-effect method [1]: synergetic effect

SMILES: C=CC(=O)Nc1cc(Nc2nccc(-c3cn(C)c4ccccc34)n2)c(OC)cc1N(C)CCN(C)C [Osimertinib, osimertinib]
CI (NCI-H1975): 0.81
Combination effect (NCI-H1975): Moderate synergetic effect (0.7 < CI ≤ 0.85)
combination effect by the median-effect method [1]: synergetic effect

SMILES: O=C(Nc1nnc(-c2ccco2)o1)c1cc(-c2ccccc2)nc2ccc(OC(F)(F)F)cc12 [STX-1159, N-[5-(2-furyl)-1,3,4-oxadiazol-2-yl]-2-phenyl-6-tri fluoromethoxy-4-quinoline carboxamide]
amount of phosphorylated STAT3 (phosphorylated STAT3; [2]): reduced
amount of survivin (survivin): reduced
amount of c-myc (c-myc; [2]): reduced

SMILES: CNC(=O)c1cc(Oc2ccc(NC(=O)Nc3ccc(Cl)c(C(F)(F)F)c3)cc2)ccn1 [Sorafenib]
CI (K1): 0.77
Combination effect (K1): Moderate synergetic effect (0.7 < CI ≤ 0.85)
CI (FTC-133): 0.85
Combination effect (FTC-133): Light synergetic effect (0.85 < CI ≤ 0.9)
CI (SAS): 0.56
Combination effect (SAS): Synergetic effect (0.3 < CI ≤ 0.7)
combination effect by the median-effect method [1]: synergetic effect
